Reference: patent publication US20230346827A1 (priority 2020, published 2023)
Marks after values point to notes of the source that are not given here.

How the values were obtained:
[1] = tested on: rats subjected to sTBI; test: sTBI rats, LMW-DS 15 mg/kg s.c.: HPLC of brain purine-pyrimidine/energy metabolites (Example 3); format: in vivo, rat
Protocol: The experimental protocol used in this study was approved by the Ethical Committee of the Catholic University of Rome, according to international standards and guidelines for animal care. Male Wistar rats of 300-350 g body weight (b.w.) were fed with standard laboratory diet and water ad libitum in a controlled environment.
They were divided into three groups: • 1) n = 6 animals subjected to sTBI, with drug administration after 30 minutes and sacrifice at 2 days post-TBI (Acute phase 1) • 2) n= 6 animals subjected to sTBI, with drug administration after 30 minutes and sacrifice at 7 days post-TBI (Acute phase 2). • 3) n= 6 animals subjected to sTBI, with drug administration after 3 days and sacrifice at 7 days post-TBI (Chronic phase).
As the anesthetic mixture, animals received 35 mg/kg b.w. ketamine and 0.25 mg/kg b.w. midazolam by i.p. injection. sTBI was induced by dropping a 450 g weight from 2 m height on to the rat head that had been protected by a metal disk previously fixed on the skull, according to the “weight drop” impact acceleration model (Marmarou et al., J Neurosurg. 1994; 80: 291-300). […] At the end of each period of treatment, rats were anesthetized again and then immediately sacrificed.
The drug treatment was a subcutaneous injection of 0.5 ml of LMW-DS (ILB®, Tikomed AB, Viken, Sweden, WO 2016/076780; 15 mg/kg) and administered according to the aforementioned schematic protocol.
An in vivo craniectomy was performed in all animals during anesthesia, after carefully removing the rat’s skull, the brain was exposed and removed with a surgical spatula and quickly dropped in liquid nitrogen. After the wet weight (w.w.) determination, tissue preparation was affected as previously disclosed (Tavazzi et al., Neurosurgery. 2005; 56: 582-589; Vagnozzi et al., Neurosurgery. 2007; 61: 379-388; Tavazzi et al., Neurosurgery. 2007; 61: 390-395; Amorini et al., J Cell Mol Med. 2017; 21: 530-542.). Briefly, whole brain homogenization was performed with 7 ml of ice-cold, nitrogen-saturated, precipitating solution composed by CH3CN + 10 mM KH2PO4, pH 7.40, (3:1; v:v), and using an Ultra-Turrax set at 24,000 rpm/min (Janke & Kunkel, Staufen, Germany). After centrifugation at 20,690 x g, for 10 min at 4° C., the clear supernatants were saved, pellets were supplemented with 3 ml of the precipitating solution and homogenized again as described above. A second centrifugation was performed (20,690 x g, for 10 min at 4° C.), pellets were saved, supernatants combined with those previously obtained, extracted by vigorous agitation with a double volume of HPLC-grade CHCl3 and centrifuged as above. The upper aqueous phases containing water-soluble low-molecular weight compounds were collected, subjected to chloroform washings for two more times (this procedure allowed the removal of all the organic solvent and of any lipid soluble compound from the buffered tissue extracts), adjusted in volumes with 10 mM KH2PO4, pH 7.40, to have ultimately aqueous 10% tissue homogenates and saved at -80° C. until assayed.
Aliquots of each deproteinized tissue samples were filtered through a 0.45 µm HV Millipore filter and loaded (200 µl) onto a Hypersil C-18, 250 × 4.6 mm, 5 µm particle size column, provided with its own guard column (Thermo Fisher Scientific, Rodano, Milan, Italy) and connected to an HPLC apparatus consisting of a Surveyor System (Thermo Fisher Scientific, Rodano, Milan, Italy) with a highly sensitive diode array detector (equipped with a 5 cm light path flow cell) and set up between 200 and 300 nm wavelength. Data acquisition and analysis were performed by a PC using the ChromQuest® software package provided by the HPLC manufacturer. […]

[2] = tested on: ALS patients; test: Blood myoglobin, creatine kinase and HGF in ALS patients, dextran sulfate 1 mg/kg s.c. weekly for five weeks (Example 15); format: in vivo, human; set-up: circulating HGF, peak: unit not given here
Protocol: A clinical trial in the form of a Phase IIa, single-center, open label, single-arm study where the safety, tolerability and possible efficacy of subcutaneously administered dextran sulfate was evaluated in patients with ALS of intermediate progression rate. The clinical trial was conducted at the Sahlgrenska University Hospital, Gothenburg, Sweden and was overseen and approved by the Ethics Committee of the University of Gothenburg and by the Swedish Medical Products Agency.
Dextran sulfate (Tikomed AB, Viken, Sweden, WO 2016/076780) was administered at 1 mg/kg by […] subcutaneous injection once a week for five weeks to 13 human patients suffering from ALS.
Blood samples were drawn at defined study intervals by a venous catheter into vacutainer tubes. Laboratory analyses of blood plasma were performed immediately after collection by the Clinical Chemistry Laboratory at the Sahlgrenska University Hospital.

[3] = Acute phase 1: drug 30 min, sacrifice 2 d post-TBI
[4] = Acute phase 2: drug 30 min, sacrifice 7 d post-TBI
[5] = Chronic phase: drug 3 d, sacrifice 7 d post-TBI
[6] = after administration of LMW-DS 15 mg/kg

Substance: sodium salt of dextran sulfate [LMW-DS]
- ASCORBIC ACID [1, 3]: 3733.10±277.88^a,d nmol/g (w.w.)
- CDP choline [1, 3]: 10.93±3.22^b,h nmol/g (w.w.)
- CMP [1, 3]: 30.12±9.97^a,h nmol/g (w.w.)
- CREATININE [1, 3]: 24.55±3.20^b,g,i nmol/g (w.w.)
- CYTIDINE [1, 3]: 15.40 ± 3.04 nmol/g (w.w.)
- CYTOSINE [1, 3]: 17.69±2.50^b,d nmol/g (w.w.)
- GSH [1, 3]: 2649.50±397.31^a,d nmol/g (w.w.)
- GUANINE [1, 3]: 4.80±1.24^b nmol/g (w.w.)
- GUANOSINE [1, 3]: 20.71 ± 5.66 nmol/g (w.w.)
- HYPOXANTHINE [1, 3]: 14.47±2.87^a nmol/g (w.w.)
- INOSINE [1, 3]: 92.55±31.20^c nmol/g (w.w.)
- MDA [1, 3]: 12.47±2.09^a,c,g nmol/g (w.w.)
- NO2 [1, 3]: 216.03±41.74^a nmol/g (w.w.)
- URACIL [1, 3]: 14.56 ± 5.44 nmol/g (w.w.)
- URIC ACID [1, 3]: 23.62±3.77^a,d,h nmol/g (w.w.)
- URIDINE [1, 3]: 76.35±12.85^a,c nmol/g (w.w.)
- XANTHINE [1, 3]: 9.46±2.34^d nmol/g (w.w.)
- adenine [1, 3]: 44.82±6.31 ^a,d,g nmol/g (w.w.)
- thymidine [1, 3]: 0.69 ± 0.11 nmol/g (w.w.)
- β-PSEUDOURIDINE [1, 3]: 6.65±1.30^g,i nmol/g (w.w.)
- ASCORBIC ACID [1, 4]: 3512.58±224.62^a,e nmol/g (w.w.)
- CDP choline [1, 4]: 6.91 ± 1.86 nmol/g (w.w.)
- CMP [1, 4]: 15.68±2.12^f,j nmol/g (w.w.)
- CREATININE [1, 4]: 37.27±5.82^a,e,j nmol/g (w.w.)
- CYTIDINE [1, 4]: 16.18±4.21^e nmol/g (w.w.)
- CYTOSINE [1, 4]: 15.70±4.10^f nmol/g (w.w.)
- GSH [1, 4]: 2821.50±242.82^a,e nmol/g (w.w.)
- GUANINE [1, 4]: 4.73 ± 1.07 nmol/g (w.w.)
- GUANOSINE [1, 4]: 17.90±3.24^j nmol/g (w.w.)
- HYPOXANTHINE [1, 4]: 12.90±2.58^a,j nmol/g (w.w.)
- INOSINE [1, 4]: 85.52±20.36^e nmol/g (w.w.)
- MDA [1, 4]: 4.82±1.73^a,e,i nmol/g (w.w.)
- NO2 [1, 4]: 226.40±30.95^b nmol/g (w.w.)
- URACIL [1, 4]: 19.40±7.52^a,e nmol/g (w.w.)
- URIC ACID [1, 4]: 19.17±2.15^a,h,i nmol/g (w.w.)
- URIDINE [1, 4]: 63.02±9.66^b,e nmol/g (w.w.)
- XANTHINE [1, 4]: 10.41±2.11^f nmol/g (w.w.)
- adenine [1, 4]: 58.16±6.36^a,f nmol/g (w.w.)
- thymidine [1, 4]: 0.49±0.20^f nmol/g (w.w.)
- β-PSEUDOURIDINE [1, 4]: 13.26±3.16^a,e,j nmol/g (w.w.)
- ASCORBIC ACID [1, 5]: 3375.03±856.41 ^a,e nmol/g (w.w.)
- CDP choline [1, 5]: 8.37 ± 2.19 nmol/g (w.w.)
- CMP [1, 5]: 20.51±3.73^a,f nmol/g (w.w.)
- CREATININE [1, 5]: 51.25±10.17^a,f nmol/g (w.w.)
- CYTIDINE [1, 5]: 14.71±2.83^e nmol/g (w.w.)
- CYTOSINE [1, 5]: 15.58±2.50^b,f nmol/g (w.w.)
- GSH [1, 5]: 2608.67±358.07^a,e nmol/g (w.w.)
- GUANINE [1, 5]: 5.31±1.04^b nmol/g (w.w.)
- GUANOSINE [1, 5]: 28.87±7.60^a,f nmol/g (w.w.)
- HYPOXANTHINE [1, 5]: 17.97±4.49^a nmol/g (w.w.)
- INOSINE [1, 5]: 105.81±25.57^f nmol/g (w.w.)
- MDA [1, 5]: 11.62±3.90^a,e nmol/g (w.w.)
- NO2 [1, 5]: 217.67±55.04^a nmol/g (w.w.)
- URACIL [1, 5]: 16.57±2.99^a f nmol/g (w.w.)
- URIC ACID [1, 5]: 27.77±3.60^a nmol/g (w.w.)
- URIDINE [1, 5]: 63.28±3.37^f nmol/g (w.w.)
- XANTHINE [1, 5]: 9.35±0.83^f nmol/g (w.w.)
- adenine [1, 5]: 52.94±8.59^a,f nmol/g (w.w.)
- thymidine [1, 5]: 0.71 ± 0.11 nmol/g (w.w.)
- β-PSEUDOURIDINE [1, 5]: 18.62±2.80^a nmol/g (w.w.)
- nitrate concentrations ([1]; acute and chronic phases of sTBI): significantly decreased
- MDA levels [1, 6]: significant reduction
- ascorbic acid and GSH levels [1, 6]: significant improvement
- NAA and its substrates, levels ([1]; after sTBI, LMW-DS 15 mg/kg): significant improvements
- reduction in creatine kinase levels ([2]; after 4 weeks of treatment): 13.3%
- serum creatine kinase levels ([2]; after 4 weeks of treatment): 6.2 ± 5.08 µkat/L
- serum myoglobin levels ([2]; after 4 weeks of treatment): 103.69 ± 72.16 µg/L
- reduction in myoglobin levels ([2]; after 4 weeks of treatment vs Day 1): 30%
- circulating HGF, peak ([2]; peak at 2.5 hours after injection): 37863 ± 14235
